Assay results: patent US8404738B2 (Hoffmann-La Roche Inc., priority 2011, dated 2013)

Experiments:
recombinant human HDAC8 = molecular target: T1, recombinant human HDAC8 (Homo sapiens, UniProt Q9BY41); assay: HDAC8 inhibition: recombinant HDAC8 fluorometric assay; format: biochemical; conditions: recombinant human HDAC8, substrate Ac-Arg-His-Lys-Lys(ε-acetyl)-AMC; read-out: HDAC8 IC50
T1 construct: made in house; host or cells: insect cells
T1 sequence (Q9BY41 1-377): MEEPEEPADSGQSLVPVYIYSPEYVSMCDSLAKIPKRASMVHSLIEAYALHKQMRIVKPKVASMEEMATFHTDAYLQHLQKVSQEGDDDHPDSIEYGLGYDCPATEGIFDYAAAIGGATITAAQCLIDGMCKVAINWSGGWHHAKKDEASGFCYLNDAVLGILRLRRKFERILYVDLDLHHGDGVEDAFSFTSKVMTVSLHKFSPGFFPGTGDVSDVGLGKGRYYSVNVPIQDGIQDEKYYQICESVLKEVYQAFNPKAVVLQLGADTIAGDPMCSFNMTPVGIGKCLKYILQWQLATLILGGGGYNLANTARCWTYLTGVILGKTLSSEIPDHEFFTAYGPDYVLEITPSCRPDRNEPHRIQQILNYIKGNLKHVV
In short: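 Recombinant human HDAC8 from insect cells was preincubated with compound for 15 min at rt, then given Ac-Arg-His-Lys-Lys(ε-acetyl)-AMC substrate for 30 min at rt. IC50 came from normalized percent inhibition with curve fitting.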

[1] = system: p21 promoter-luciferase construct; assay: p21 reporter gene induction (HeLa cells, p21 promoter-luciferase construct); conditions: for p21 RP3: relative gene level of p21 compared to MS275 at 3 μM; for p21 RP10: relative level of p21 compared to MS275 at 10 μM; for p21 RP30: relative level of p21 compared to MS275 at 30 μM;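 for all read-outs here: transfected HeLa cells exposed to compound for 15 h, luciferase luminescence read from lysates, p21 promoter lacks p53 site, proxy for cellular HDAC1/2/3 inhibition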
HDAC6 = molecular target: T2, HDAC6 (Homo sapiens, UniProt Q9UBN7); assay: Tubulin acetylation cytoblot assay (A549 cells); format: cell-based; conditions: 17-18 h incubation, tubulin acetylation as marker of HDAC6 inhibition, read-out: Tub-Ac EC50
T2 construct: endogenous in cells; host or cells: A549 cells
T2 sequence (Q9UBN7 1-1215): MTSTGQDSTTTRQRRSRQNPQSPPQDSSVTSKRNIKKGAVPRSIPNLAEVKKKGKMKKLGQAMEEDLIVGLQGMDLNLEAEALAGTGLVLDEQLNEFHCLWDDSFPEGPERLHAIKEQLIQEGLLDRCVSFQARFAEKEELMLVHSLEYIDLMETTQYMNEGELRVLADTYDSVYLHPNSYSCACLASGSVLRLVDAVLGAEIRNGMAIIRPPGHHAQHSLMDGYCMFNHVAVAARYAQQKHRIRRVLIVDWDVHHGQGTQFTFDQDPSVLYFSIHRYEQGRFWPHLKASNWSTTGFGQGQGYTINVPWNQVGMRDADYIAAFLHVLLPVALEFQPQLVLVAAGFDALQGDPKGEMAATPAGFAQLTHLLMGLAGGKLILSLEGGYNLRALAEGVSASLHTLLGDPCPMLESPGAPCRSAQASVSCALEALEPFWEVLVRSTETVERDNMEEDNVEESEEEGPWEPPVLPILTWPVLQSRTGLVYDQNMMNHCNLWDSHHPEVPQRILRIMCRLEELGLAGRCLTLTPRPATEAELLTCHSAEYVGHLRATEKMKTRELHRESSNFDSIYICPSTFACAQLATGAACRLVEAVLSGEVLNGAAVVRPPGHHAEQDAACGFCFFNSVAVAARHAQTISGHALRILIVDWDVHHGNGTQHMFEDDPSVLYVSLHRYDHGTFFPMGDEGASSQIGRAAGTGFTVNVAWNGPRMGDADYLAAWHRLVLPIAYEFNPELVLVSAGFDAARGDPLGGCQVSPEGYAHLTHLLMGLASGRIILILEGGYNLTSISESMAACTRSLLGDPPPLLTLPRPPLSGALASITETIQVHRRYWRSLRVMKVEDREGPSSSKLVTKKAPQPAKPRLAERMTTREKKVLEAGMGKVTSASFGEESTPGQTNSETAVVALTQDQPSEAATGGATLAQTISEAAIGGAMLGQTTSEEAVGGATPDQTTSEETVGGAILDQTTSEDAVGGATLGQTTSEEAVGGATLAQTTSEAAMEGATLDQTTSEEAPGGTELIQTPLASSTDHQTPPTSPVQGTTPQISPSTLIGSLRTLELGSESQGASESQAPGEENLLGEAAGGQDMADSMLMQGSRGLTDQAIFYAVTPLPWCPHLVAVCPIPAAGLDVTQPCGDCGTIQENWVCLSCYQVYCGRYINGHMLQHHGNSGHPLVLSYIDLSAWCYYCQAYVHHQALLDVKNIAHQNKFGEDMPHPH
In short: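 Cells were exposed to compound for 17-18 h, then fixed with formaldehyde and permeabilized with cold MeOH. They were probed for 4 h at 4° C with anti-acetylated tubulin plus HRP anti-mouse IgG (each 1:750), and read by ECL luminescence. EC50 values came from curves normalized to top and bottom controls.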

Row | IC50 (recombinant human HDAC8) | EC50 (HDAC6) | SMILES | p21 RP3 [1] | p21 RP10 [1] | p21 RP30 [1]
1 | 0.85 µM | 8.23 µM | O=C(NO)c1ccc(NC2CCN(c3ccccc3)C2=O)c(Cl)c1 (stereo not drawn) [Example 69, 3-Chloro-N-hydroxy-4-(2-oxo-1-phenyl-pyrrolidin-3-ylamino)-benzamide] | 0.36 | 0.15 | −0.03
2 | 1.83 µM | 1.81 µM | CC1C(=O)N(c2ccc(Cl)cc2)CC1Nc1ccc(C(=O)NO)cc1 (stereo not drawn) [Example 78, 4-[1-(4-Chloro-phenyl)-4-methyl-5-oxo-pyrrolidin-3-ylamino]-N-hydroxy-benzamide] | 0.64 | 0.15 | 0.04
3 | 1.23 µM | 0.15 µM | CC1(Nc2ccc(C(=O)NO)cc2)C(=O)N(Cc2ccccc2Cl)c2ccc(F)cc21 (stereo not drawn) [Example 99, 4-[1-(2-Chloro-benzyl)-5-fluoro-3-methyl-2-oxo-2,3-dihydro-1H-indol-3-ylamino]-N-hydroxy-benzamide] | 0.95 | 0.62 | 0.00
4 | 4.69 µM | 4.94 µM | O=C(NO)c1ccc(NC2CCN(c3cc(Cl)cc(Cl)c3)C2=O)cc1 (stereo not drawn) [Example 26, 4-[1-(3,5-Dichloro-phenyl)-2-oxo-pyrrolidin-3-ylamino]-N-hydroxy-benzamide] | 0.42 | 0.06 | 0.04
5 | 1.86 µM | 4.11 µM | Cc1cc(F)cc(C)c1N1CCC(Nc2ccc(C(=O)NO)cc2)C1=O (stereo not drawn) [Example 28, 4-[1-(4-Fluoro-2,6-dimethyl-phenyl)-2-oxo-pyrrolidin-3-ylamino]-N-hydroxy-benzamide] | 0.04 | 0.01 | 0.01
6 | 0.93 µM | 2.16 µM | O=C(NO)c1ccc(NC2CCN(c3cccc4ccccc34)C2=O)cc1 (stereo not drawn) [Example 37, N-Hydroxy-4-(1-naphthalen-1-yl-2-oxo-pyrrolidin-3-ylamino)-benzamide] | 0.04 | 0.04 | 0.06
7 | 0.72 µM | 0.71 µM | CC1(Nc2ccc(C(=O)NO)cc2)C(=O)N(c2cccc(Cl)c2)c2ccncc21 (stereo not drawn) [Example 100, 4-[1-(3-Chloro-phenyl)-3-methyl-2-oxo-2,3-dihydro-1H-pyrrolo[3,2-c]pyridin-3-ylamino]-N-hydroxy-benzamide] | 0.45 | 0.13 | 0.31
8 | 0.59 µM | 4.12 µM | COc1cccc(N2CCC(Nc3ccc(C(=O)NO)cc3)C2=O)c1 (stereo not drawn) [Example 8, N-Hydroxy-4-[1-(3-methoxy-phenyl)-2-oxo-pyrrolidin-3-ylamino]-benzamide] | 0.09 | 0.15 | 0.29
9 | 1.92 µM | 0.72 µM | O=C(NO)c1ccc(NC2CCN(c3c(Cl)cccc3Cl)C2)cc1 (stereo not drawn) [Example 81, 4-[1-(2,6-Dichloro-phenyl)-pyrrolidin-3-ylamino]-N-hydroxy-benzamide] | 0.08 | −0.04 | −0.01
10 | 0.71 µM | 0.7 µM | O=C(NO)c1ccc(NC2CCN(c3cccc(-c4ccccc4)c3)C2=O)cc1 (stereo not drawn) [Example 32, 4-(1-Biphenyl-3-yl-2-oxo-pyrrolidin-3-ylamino)-N-hydroxy-benzamide] | 0.38 | 0.08 | 0.15
11 | 2.89 µM | 10.6 µM | O=C(NO)c1ccc(NC2CCN(c3ccc(-n4ccnc4)cc3)C2=O)cc1 (stereo not drawn) [Example 34, N-Hydroxy-4-[1-(4-imidazol-1-yl-phenyl)-2-oxo-pyrrolidin-3-ylamino]-benzamide] | 0.36 | 0.12 | 0.06
12 | 1.74 µM | 0.33 µM | CC1(Nc2ccc(C(=O)NO)cc2)C(=O)N(Cc2ccccc2Cl)c2ccccc21 (stereo not drawn) [Example 92] | 0.56 | 0.20 | 0.40
13 | 0.71 µM | 1.93 µM | CC1(Nc2ccc(C(=O)NO)cc2)CCN(c2cccc3cccnc23)C1=O (stereo not drawn) [Example 62, N-Hydroxy-4-(3-methyl-2-oxo-1-quinolin-8-yl-pyrrolidin-3-ylamino)-benzamide] | 0.55 | 0.11 | 0.20
14 | 1.93 µM | 1.32 µM | O=C(NO)c1ccc(NC2CCN(c3cc(Cl)ccc3F)C2=O)cc1 (stereo not drawn) [Example 22, 4-[1-(5-Chloro-2-fluoro-phenyl)-2-oxo-pyrrolidin-3-ylamino]-N-hydroxy-benzamide] | 0.42 | 0.28 | 0.39
15 | 0.84 µM | 5.15 µM | O=C(NO)c1ccc(NC2CCN(C3CCCCC3)C2=O)cc1 (stereo not drawn) [Example 41, 4-(1-Cyclohexyl-2-oxo-pyrrolidin-3-ylamino)-N-hydroxy-benzamide] | 0.05 | 0.02 | 0.02
16 | 4.14 µM | 9.78 µM | O=C(NO)c1ccc(NC2CCN(c3ccc(Oc4ccccc4)cc3)C2=O)cc1 (stereo not drawn) [Example 31, N-Hydroxy-4-[2-oxo-1-(4-phenoxy-phenyl)-pyrrolidin-3-ylamino]-benzamide] | 0.09 | 0.07 | 0.05
17 | 1.7 µM | 4.54 µM | O=C(NO)c1ccc(NC2CCN(c3ccccc3)C2)cc1 (stereo not drawn) [Example 79, N-Hydroxy-4-(1-phenyl-pyrrolidin-3-ylamino)-benzamide] | 0.21 | 0.09 | 0.04
18 | 1.09 µM | 1.56 µM | O=C(NO)c1ccc(NC2CCN(c3cccc(F)c3)C2=O)cc1 (stereo not drawn) [Example 3, 4-[1-(3-Fluoro-phenyl)-2-oxo-pyrrolidin-3-ylamino]-N-hydroxy-benzamide] | 0.18 | 0.06 | 0.08
19 | 0.77 µM | 2.48 µM | O=C(NO)c1ccc(NC2CCN(c3cccc(Cl)c3Cl)C2=O)cc1 (stereo not drawn) [Example 24, 4-[1-(2,3-Dichloro-phenyl)-2-oxo-pyrrolidin-3-ylamino]-N-hydroxy-benzamide] | 0.11 | 0.02 | 0.02

Row | SMILES | IC50 (recombinant human HDAC8) | EC50 (HDAC6) | p21 RP3 [1] | p21 RP10 [1] | p21 RP30 [1]
20 | CS(=O)(=O)c1ccc(N2CCC(Nc3ccc(C(=O)NO)cc3)C2=O)cc1 (stereo not drawn) [Example 17, N-Hydroxy-4-[1-(4-methanesulfonyl-phenyl)-2-oxo-pyrrolidin-3-ylamino]-benzamide] | 1.19 µM | 11.9 µM | 0.00 | 0.02 | 0.02
21 | CC1(Nc2ccc(C(=O)NO)cc2)CCN(c2ccc3ncccc3c2)C1=O (stereo not drawn) [Example 63, N-Hydroxy-4-(3-methyl-2-oxo-1-quinolin-6-yl-pyrrolidin-3-ylamino)-benzamide] | 0.89 µM | 0.36 µM | 0.47 | 0.15 | 0.22
